Reference: PMC12250302, “Synthesis, Antimicrobial Activities, and Model of Action of Novel Tetralone Derivatives Containing Aminoguanidinium Moiety” (International Journal of Molecular Sciences, 2025)
In brackets after ≈: the same amount, converted by molar mass. Like-named read-outs stand apart in the source and are kept apart here.

Legend:
Test in all cases: MIC and MBC testing, broth microdilution
S. aureus ATCC 29213 = format: cell-based, Staphylococcus aureus; conditions: S. aureus ATCC 29213; for MIC: 18 h
Excerpt: (§1) The minimum inhibitory concentrations (MICs) and minimum bactericidal concentrations (MBCs) of the synthesized compounds effective against ESKAPE strains, S. aureus clinical isolates, and MRSA were investigated by the broth dilution method. Levofloxacin is a broad-spectrum antibacterial agent that is widely used in the treatment of ESKAPE infections. Therefore, levofloxacin was selected as the positive control for the preliminary activity screening. DMSO (0.1%) was selected as the negative control.
(§2) The minimum inhibitory concentration (MIC) of all synthesized compounds was tested by the broth microdilution method. In brief, compounds dissolved in DMSO were diluted twice continuously in a 96-well plate with MH broth. The ESKAPE pathogens (E. coli ATCC 25922, S. aureus ATCC 29213, K. pneumoniae ATCC 700603, A. baumannii ATCC 19606, P. aeruginosa ATCC 27853, and E. faecium ATCC 35667), clinical S. aureus isolates (LMY45, LMY46, LMY47, and LMY48) and methicillin-resistant Staphylococcus aureus (MRSA-1 and MRSA-2) were cultured in MH broth to logarithmic growth phase and then diluted to 1 × 10^6 CFU/mL in MH broth. Subsequently, the diluted bacterial solution was mixed with the diluted compound solution in a 96-well plate and incubated at 37 °C for a duration of 18 h. The MIC of the compounds was recorded as the lowest concentration at which no visible growth was observed. […] Each concentration was replicated thrice.

E. faecium ATCC 35667 = format: cell-based, Enterococcus faecium; conditions: E. faecium ATCC 35667; for MIC: 18 h
Excerpt: as §1, §2

MRSA-2 = format: cell-based, Staphylococcus aureus; conditions: MRSA-2; for MIC: 18 h
Procedure: (§3) Furthermore, the MBC values of the compounds were detected.
as §2, with “h.” for “h. The MIC of the compounds was recorded as the lowest concentration at which no visible growth was observed.”

[1] = system: clinical S. aureus isolate LMY47; format: cell-based, Staphylococcus aureus; conditions: LMY47; for MIC: 18 h
Procedure: as §3
as §2, with “h.” for “h. The MIC of the compounds was recorded as the lowest concentration at which no visible growth was observed.”

MRSA-1 = format: cell-based, Staphylococcus aureus; conditions: MRSA-1; for MIC: 18 h
Procedure: as §3
as §2, with “h.” for “h. The MIC of the compounds was recorded as the lowest concentration at which no visible growth was observed.”

[2] = system: clinical S. aureus isolate LMY46; format: cell-based, Staphylococcus aureus; conditions: LMY46; for MIC: 18 h
Procedure: as §3
as §2, with “h.” for “h. The MIC of the compounds was recorded as the lowest concentration at which no visible growth was observed.”

[3] = system: clinical S. aureus isolate LMY48; format: cell-based, Staphylococcus aureus; conditions: LMY48; for MIC: 18 h
Procedure: as §3
as §2, with “h.” for “h. The MIC of the compounds was recorded as the lowest concentration at which no visible growth was observed.”

[4] = system: clinical S. aureus isolate LMY45; format: cell-based, Staphylococcus aureus; conditions: LMY45; for MIC: 18 h
Procedure: as §3
as §2, with “h.” for “h. The MIC of the compounds was recorded as the lowest concentration at which no visible growth was observed.”

[5] = system: K. pneumoniae ATCC 700603; format: cell-based, Klebsiella pneumoniae
Excerpt: as §1, §2

P. aeruginosa ATCC 27853 = format: cell-based, Pseudomonas aeruginosa
Excerpt: as §1, §2

A. baumannii ATCC 19606 = format: cell-based, Acinetobacter baumannii
Excerpt: as §1, §2

E. coli ATCC 25922 = format: cell-based, Escherichia coli
Excerpt: as §1, §2

[6] = Staphylococcus aureus, ATCC29213, read-out: MIC
[7] = Staphylococcus aureus, ATCC29213, read-out: MBC
[8] = Enterococcus faecium, ATCC35667, read-out: MIC
[9] = Enterococcus faecium, ATCC35667, read-out: MBC
[10] = Staphylococcus aureus, read-out: MIC
[11] = Staphylococcus aureus, read-out: MBC
[12] = Klebsiella pneumoniae, ATCC700603, 18 h, read-out: MIC
[13] = Pseudomonas aeruginosa, ATCC27853, 18 h, read-out: MIC
[14] = Acinetobacter baumannii, ATCC19606, 18 h, read-out: MIC
[15] = Acinetobacter baumannii, ATCC19606, read-out: MBC
[16] = Escherichia coli, ATCC25922, 18 h, read-out: MIC
[17] = Escherichia coli, ATCC25922, read-out: MBC

## [H]/N=C(\N)NN=C1CCCc2cc(OCc3ccc(C#N)cc3)ccc21 [Compound 1V, (E)-2-(6-((4-cyanobenzyl)oxy)-3,4-dihydronaphthalen-1(2H)-ylidene)hydrazine-1-carboximidamide]
S. aureus ATCC 29213; [6]
  MIC: 8 µg/mL (≈ 24 µM)
S. aureus ATCC 29213; [7]
  MBC: 32 µg/mL (≈ 96 µM)
E. faecium ATCC 35667; [8]
  MIC: 16 µg/mL (≈ 48 µM)
E. faecium ATCC 35667; [9]
  MBC: > 32 µg/mL
MRSA-2; [10]
  MIC: 8 µg/mL (≈ 24 µM)
MRSA-2; [11]
  MBC: 8 µg/mL (≈ 24 µM)
[1]; [10]
  MIC: 8 µg/mL (≈ 24 µM)
[1]; [11]
  MBC: 32 µg/mL (≈ 96 µM)
MRSA-1; [10]
  MIC: 8 µg/mL (≈ 24 µM)
MRSA-1; [11]
  MBC: 16 µg/mL (≈ 48 µM)
[2]; [10]
  MIC: 4 µg/mL (≈ 12 µM)
[2]; [11]
  MBC: 32 µg/mL (≈ 96 µM)
[3]; [10]
  MIC: 8 µg/mL (≈ 24 µM)
[3]; [11]
  MBC: 8 µg/mL (≈ 24 µM)
[4]; [10]
  MIC: 4 µg/mL (≈ 12 µM)
[4]; [11]
  MBC: 8 µg/mL (≈ 24 µM)
[5]; [12]
  MIC: 32 µg/mL (≈ 96 µM)
P. aeruginosa ATCC 27853; [13]
  MIC: > 32 µg/mL
A. baumannii ATCC 19606; [14]
  MIC: 16 µg/mL (≈ 48 µM)
A. baumannii ATCC 19606; [15]
  MBC: 32 µg/mL (≈ 96 µM)
E. coli ATCC 25922; [16]
  MIC: 16 µg/mL (≈ 48 µM)
E. coli ATCC 25922; [17]
  MBC: 32 µg/mL (≈ 96 µM)

## [H]/N=C(\N)NN=C1CCCc2cc(OCc3ccc(F)cc3Cl)ccc21 [Compound 1T, (E)-2-(6-((2-chloro-4-fluorobenzyl)oxy)-3,4-dihydronaphthalen-1(2H)-ylidene)hydrazine-1-carboximidamide]
S. aureus ATCC 29213; [6]
  MIC: 2 µg/mL (≈ 5.54 µM)
S. aureus ATCC 29213; [7]
  MBC: 32 µg/mL (≈ 88.7 µM)
E. faecium ATCC 35667; [8]
  MIC: 2 µg/mL (≈ 5.54 µM)
E. faecium ATCC 35667; [9]
  MBC: 16 µg/mL (≈ 44.3 µM)
MRSA-2; [10]
  MIC: 2 µg/mL (≈ 5.54 µM)
MRSA-2; [11]
  MBC: 8 µg/mL (≈ 22.2 µM)
[1]; [10]
  MIC: 1 µg/mL (≈ 2.77 µM)
[1]; [11]
  MBC: 4 µg/mL (≈ 11.1 µM)
MRSA-1; [10]
  MIC: 1 µg/mL (≈ 2.77 µM)
MRSA-1; [11]
  MBC: 8 µg/mL (≈ 22.2 µM)
[2]; [10]
  MIC: 1 µg/mL (≈ 2.77 µM)
[2]; [11]
  MBC: 4 µg/mL (≈ 11.1 µM)
[3]; [10]
  MIC: 4 µg/mL (≈ 11.1 µM)
[3]; [11]
  MBC: 4 µg/mL (≈ 11.1 µM)
[4]; [10]
  MIC: 1 µg/mL (≈ 2.77 µM)
[4]; [11]
  MBC: 4 µg/mL (≈ 11.1 µM)
[5]; [12]
  MIC: > 32 µg/mL
P. aeruginosa ATCC 27853; [13]
  MIC: > 32 µg/mL
A. baumannii ATCC 19606; [14]
  MIC: 16 µg/mL (≈ 44.3 µM)
A. baumannii ATCC 19606; [15]
  MBC: 32 µg/mL (≈ 88.7 µM)
E. coli ATCC 25922; [16]
  MIC: 8 µg/mL (≈ 22.2 µM)
E. coli ATCC 25922; [17]
  MBC: > 32 µg/mL

## [H]/N=C(\N)NN=C1CCCc2cc(OCCCCCCCCCC)ccc21 [Compound 2G, (E)-2-(6-(decyloxy)-3,4-dihydronaphthalen-1(2H)-ylidene)hydrazine-1-carboximidamide]
S. aureus ATCC 29213; [6]
  MIC: 2 µg/mL (≈ 5.58 µM)
S. aureus ATCC 29213; [7]
  MBC: 8 µg/mL (≈ 22.3 µM)
E. faecium ATCC 35667; [8]
  MIC: 2 µg/mL (≈ 5.58 µM)
E. faecium ATCC 35667; [9]
  MBC: 8 µg/mL (≈ 22.3 µM)
MRSA-2; [10]
  MIC: 4 µg/mL (≈ 11.2 µM)
MRSA-2; [11]
  MBC: 4 µg/mL (≈ 11.2 µM)
[1]; [10]
  MIC: 2 µg/mL (≈ 5.58 µM)
[1]; [11]
  MBC: 2 µg/mL (≈ 5.58 µM)
MRSA-1; [10]
  MIC: 4 µg/mL (≈ 11.2 µM)
MRSA-1; [11]
  MBC: 16 µg/mL (≈ 44.6 µM)
[2]; [10]
  MIC: 4 µg/mL (≈ 11.2 µM)
[2]; [11]
  MBC: 8 µg/mL (≈ 22.3 µM)
[3]; [10]
  MIC: 2 µg/mL (≈ 5.58 µM)
[3]; [11]
  MBC: 4 µg/mL (≈ 11.2 µM)
[4]; [10]
  MIC: 4 µg/mL (≈ 11.2 µM)
[4]; [11]
  MBC: 16 µg/mL (≈ 44.6 µM)
[5]; [12]
  MIC: > 32 µg/mL
P. aeruginosa ATCC 27853; [13]
  MIC: > 32 µg/mL
A. baumannii ATCC 19606; [14]
  MIC: > 32 µg/mL
E. coli ATCC 25922; [16]
  MIC: > 32 µg/mL

## (E)-2-(6-((2,4-dichlorobenzyl)oxy)-3,4-dihydro-1(2H)-naphthalenylidene)hydrazine-1-carboxamide [Compound 1O]
S. aureus ATCC 29213
  MBC: 8 µg/mL
  MIC: 4 µg/mL
E. faecium ATCC 35667
  MBC: 16 µg/mL
  MIC: 2 µg/mL
MRSA-2
  MBC: 8 µg/mL
  MIC: 2 µg/mL
[1]
  MBC: 4 µg/mL
  MIC: ≤ 1 µg/mL
MRSA-1
  MBC: 16 µg/mL
  MIC: 1 µg/mL
[2]
  MBC: 8 µg/mL
  MIC: 4 µg/mL
[3]
  MBC: 2 µg/mL
  MIC: ≤ 1 µg/mL
[4]
  MBC: 16 µg/mL
  MIC: 2 µg/mL
[5]; 18 h
  MIC: >32/- µg/mL
P. aeruginosa ATCC 27853; 18 h
  MIC: >32/- µg/mL
A. baumannii ATCC 19606
  MBC: 16 µg/mL
A. baumannii ATCC 19606; 18 h
  MIC: 16 µg/mL
E. coli ATCC 25922
  MBC: 16 µg/mL
E. coli ATCC 25922; 18 h
  MIC: 8 µg/mL
